Where a name gives a salt, the structure may show the parent alone.
Tests used:
[1] = Hygroscopicity of crystalline form ω under standard storage conditions; format: physicochemical
[2] = Physical and chemical stability of crystalline form ω under standard conditions; format: physicochemical; details: standard pressure, temperature and humidity conditions; FIGS. 6 and 7
[3] = XRPD comparison of crystalline form ω fresh and after storage; format: physicochemical; details: in the presence of moisture; FIGS. 6 and 7: 4° C. 24 hours, room temperature 24 hours, 25° C. and 60% RH 7 days
Procedure: FIG. 6: Comparison of XRPD spectra of a sample of vortioxetine hydrobromide in crystalline form ω, as defined herein, freshly prepared (top line), after the same sample of vortioxetine hydrobromide in crystalline form ω has been kept at low temperature (4° C.) for 24 hours (middle line), and after the sample has been kept at room temperature for 24 hours (bottom line).
FIG. 7: Comparison of XRPD spectra of a sample of vortioxetine hydrobromide in crystalline form ω, as defined herein, freshly prepared (bottom line), and the same sample analysed after 7 days, kept at a temperature of 25° C. and 60% relative humidity (RH) (top line).
Crystalline form ω of vortioxetine hydrobromide was characterised by X-ray powder diffraction (XRPD). The X-ray powder diffraction (XRPD) spectra shown in FIGS. 3, 6 and 7 were collected with a PANalytical X'Pert PRO automatic powder diffractometer under the following operating conditions: CuKα radiation (λ=1.54 Å), scanning with a 2θ angle range of 3-40° with a step size of 0.017° for 12.7 sec.

[4] = as said in WO 2014/044721; cited from earlier work
[5] = greater relative humidity than the standard conditions; as described in WO 2007/144005, acknowledged by WO2014/044721; cited from earlier work

## Cc1ccc(Sc2ccccc2N2CCNCC2)c(C)c1 [crystalline form ω, hydrobromide salt of 1-[2-(2,4-dimethylphenylsulphanyl)phenyl]piperazine]
[1]
  hygroscopicity: not hygroscopic
[2]
  physical and chemical stability: stable from both the physical and the chemical standpoint
[3]
  retention of crystalline form (XRPD): keeps its crystalline form

## Cc1ccc(Sc2ccccc2N2CCNCC2)c(C)c1 [delta crystalline form, vortioxetine hydrobromide]
[4]
  solubility in water: high solubility in water

## Cc1ccc(Sc2ccccc2N2CCNCC2)c(C)c1 [gamma, vortioxetine hydrobromide]
[5]
  hygroscopicity (tendency to absorb water): significant hygroscopicity

Reference: patent publication US9687484B2, “Crystalline forms of an antidepressant compound” (DIPHARMA FRANCIS S.r.l., priority 2014, dated 2017)
